# Target: T1, His6-HGFR (HGFR cytoplasmic domain) (Homo sapiens, UniProt P08581)
# T1 construct: made in house; host or cells: Sf9 insect cells (Spodoptera frugiperda), baculovirus, pFastBac-HT vector
# Test: Inhibitory activity against HGFR tyrosine kinase activity (HTRF)
# Type: biochemical
# Details: biotin-poly(GT), ATP, 30° C. 10 min
# Outline: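 Sf9-expressed, Ni-NTA-purified N-terminal His6-tagged HGFR cytoplasmic domain (from Lys974), 30 ng, phosphorylates 250 ng biotin-poly(GT) in Hepes pH 7.4 with MgCl2, MnCl2 and Na3VO4. Reaction started with 4 μM ATP stock, run 10 min at 30° C, stopped with EDTA. Phosphotyrosine is detected by HTRF.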
# T1 sequence (P08581 956-1390 limits assumed): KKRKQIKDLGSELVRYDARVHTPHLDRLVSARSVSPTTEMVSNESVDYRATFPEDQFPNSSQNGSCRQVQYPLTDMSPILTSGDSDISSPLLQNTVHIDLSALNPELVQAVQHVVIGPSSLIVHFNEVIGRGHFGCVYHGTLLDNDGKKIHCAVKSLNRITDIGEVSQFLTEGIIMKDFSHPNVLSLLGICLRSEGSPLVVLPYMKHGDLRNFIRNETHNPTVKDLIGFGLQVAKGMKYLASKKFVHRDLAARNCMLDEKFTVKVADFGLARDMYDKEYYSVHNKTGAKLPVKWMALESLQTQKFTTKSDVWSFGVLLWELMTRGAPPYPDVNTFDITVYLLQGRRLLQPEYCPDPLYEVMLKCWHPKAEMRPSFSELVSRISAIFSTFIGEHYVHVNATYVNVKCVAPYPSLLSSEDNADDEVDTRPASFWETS
row,IC50,SMILES
1,0.023 µM,"O=C(Nc1cc(Oc2ccc(NC(=O)C3(C(=O)Nc4ccc(F)cc4)CC3)cc2)ccn1)N1CCOCC1 [Example 68, N-(4-Fluorophenyl)-N′-[4-({2-[(morpholin-4-ylcarbonyl)amino]pyridin-4-yl}oxy)phenyl]cyclopropane-1,1-dicarboxamide]"
2,0.031 µM,"O=C(Nc1cc(Oc2ccc(NC(=O)C3(C(=O)Nc4ccc(F)cc4)CC3)cc2)ccn1)N1CCCC1 [Example 69, N-(4-Fluorophenyl)-N′-[4-({2-[(pyrrolidin-1-ylcarbonyl)amino]pyridin-4-yl}oxy)phenyl]cyclopropane-1,1-dicarboxamide]"
3,0.019 µM,"O=C(Nc1cc(Oc2ccc(NC(=O)C3(C(=O)Nc4ccc(F)cc4)CC3)cc2)ccn1)N1CCC1 [Example 70, N-[4-({2-[(Azetidin-1-ylcarbonyl)amino]pyridin-4-yl}oxy)phenyl]-N′-(4-fluorophenyl)cyclopropane-1,1-dicarboxamide]"
4,0.121 µM,"O=C(Nc1cc(Oc2ccc(NC(=O)C3(C(=O)Nc4ccc(F)cc4)CC3)c(F)c2)ccn1)N1CCC(N2CCNCC2)CC1 [Example 71, N-(4-Fluorophenyl)-N′-{2-fluoro-4-[(2-{[(4-piperazin-1-ylpiperidin-1-yl)carbonyl]amino}pyridin-4-yl)oxy]phenyl}cyclopropane-1,1-dicarboxamide]"
5,0.01 µM,"O=C(Nc1cc(Oc2ccc(NC(=O)C3(C(=O)Nc4ccc(F)cc4)CC3)c(F)c2)ccn1)N1CC(O)C1 [Example 72, N-{2-Fluoro-4-[(2-{[(3-hydroxyazetidin-1-yl)carbonyl]amino}pyridin-4-yl)oxy]phenyl}-N′-(4-fluorophenyl)cyclopropane-1,1-dicarboxamide]"
6,0.105 µM,"O=C(Nc1cc(Oc2ccc(NC(=O)C3(C(=O)Nc4ccc(F)cc4)CC3)c(F)c2)ccn1)N1CC(N2CCC2)C1 [Example 73, N-[4-({2-[(1,3′-Biazetidin-1′-ylcarbonyl)amino]pyridin-4-yl}oxy)-2-fluorophenyl]-N′-(4-fluorophenyl)cyclopropane-1,1-dicarboxamide]"
7,0.01 µM,O=C(Nc1cc(Oc2ccc(NC(=O)C3(C(=O)Nc4ccc(F)cc4)CC3)c(F)c2)ccn1)N1CC(CO)C1 [Example 75]
8,0.045 µM,"CN(C)C1CN(C(=O)Nc2cc(Oc3ccc(NC(=O)C4(C(=O)Nc5ccc(F)cc5)CC4)c(F)c3)ccn2)C1 [Example 76, N-(4-{[2-({[3-(Dimethylamino)azetidin-1-yl]carbonyl}amino)pyridin-4-yl]oxy}-2-fluorophenyl)-N′-(4-fluorophenyl)cyclopropane-1,1-dicarboxamide]"
9,0.058 µM,"CN(C)CC1CN(C(=O)Nc2cc(Oc3ccc(NC(=O)C4(C(=O)Nc5ccc(F)cc5)CC4)c(F)c3)ccn2)C1 [Example 77, N-[4-({2-[({3-[(Dimethylamino)methyl]azetidin-1-yl}carbonyl)amino]pyridin-4-yl}oxy)-2-fluorophenyl]-N′-(4-fluorophenyl)cyclopropane-1,1-dicarboxamide]"
10,0.014 µM,"COC1CN(C(=O)Nc2cc(Oc3ccc(NC(=O)C4(C(=O)Nc5ccc(F)cc5)CC4)c(F)c3)ccn2)C1 [Example 78, N-[2-Fluoro-4-[(2-{[(3-methoxyazetidin-1-yl)carbonyl]amino}pyridin-4-yl)oxy]phenyl}-N′-(4-fluorophenyl)cyclopropane-1,1-dicarboxamide]"
11,0.014 µM,COC1CN(C(=O)Nc2cc(Oc3ccc(NC(=O)C4(C(=O)Nc5ccc(F)cc5)CC4)cc3F)ccn2)C1 [Example 79]
12,0.018 µM,"O=C(Nc1cc(Oc2ccc(NC(=O)C3(C(=O)Nc4ccc(F)cc4)CC3)cc2F)ccn1)N1CC(O)C1 [Example 80, N-{3-Fluoro-4-[(2-{[(3-hydroxyazetidin-1-yl)carbonyl]amino}pyridin-4-yl)oxy]phenyl}-N′-(4-fluorophenyl)cyclopropane-1,1-dicarboxamide]"
13,0.033 µM,"O=C(Nc1cc(Oc2cc(F)c(NC(=O)C3(C(=O)Nc4ccc(F)cc4)CC3)cc2F)ncn1)N1CC(CO)C1 [Example 99, N-(2,5-Difluoro-4-{[4-({[3-(hydroxymethyl)azetidin-1-yl]carbonyl}amino)pyrimidin-6-yl]oxy}phenyl)-N′-(4-fluorophenyl)cyclopropane-1,1-dicarboxamide]"
14,0.085 µM,"CN1CCC(N(C)C(=O)Nc2cc(Oc3cc(F)c(NC(=O)C4(C(=O)Nc5ccc(F)cc5)CC4)cc3F)ncn2)CC1 [Example 100, N-(2,5-Difluoro-4-{[4-({[methyl(1-methylpiperidin-4-yl)amino]carbonyl}amino)pyrimidin-6-yl]oxy}phenyl)-N′-(4-fluorophenyl)cyclopropane-1,1-dicarboxamide]"
15,0.072 µM,"CN1CCN(C2CCN(C(=O)Nc3cc(Oc4cc(F)c(NC(=O)C5(C(=O)Nc6ccc(F)cc6)CC5)cc4F)ncn3)CC2)CC1 [Example 101, N-(2,5-Difluoro-4-{[4-({[4-(4-methylpiperazin-1-yl)piperidin-1-yl]carbonyl}amino)pyrimidin-6-yl]oxy}phenyl)-N′-(4-fluorophenyl)cyclopropane-1,1-dicarboxamide]"
16,0.072 µM,"CN(C)C1CCN(C(=O)Nc2cc(Oc3cc(F)c(NC(=O)C4(C(=O)Nc5ccc(F)cc5)CC4)cc3F)ncn2)CC1 [Example 102, N-(4-{[4-({[4-(Dimethylamino)piperidin-1-yl]carbonyl}amino)pyrimidin-6-yl]oxy}-2,5-difluorophenyl)-N′-(4-fluorophenyl)cyclopropane-1,1-dicarboxamide]"
17,0.057 µM,"CN(C)C1CCN(C(=O)Nc2cc(Oc3cc(F)c(NC(=O)C4(C(=O)Nc5ccc(F)cc5)CC4)cc3F)ccn2)CC1 [Example 103, N-(4-{[2-({[4-(Dimethylamino)piperidin-1-yl]carbonyl}amino)pyridin-4-yl]oxy}-2,5-difluorophenyl)-N′-(4-fluorophenyl)cyclopropane-1,1-dicarboxamide]"
18,0.071 µM,"CN1CCN(C(=O)Nc2cc(Oc3cc(F)c(NC(=O)C4(C(=O)Nc5ccc(F)cc5)CC4)cc3F)ccn2)CC1 [Example 104, N-{2,5-Difluoro-4-[(2-{[(4-methylpiperazin-1-yl)carbonyl]amino}pyridin-4-yl]oxy}phenyl)-N′-(4-fluorophenyl)cyclopropane-1,1-dicarboxamide]"
19,0.015 µM,O=C(Nc1cc(Oc2cc(F)c(NC(=O)C3(C(=O)Nc4ccc(F)cc4)CC3)cc2F)ccn1)N1CCC(O)CC1 [Example 105]
20,0.016 µM,"O=C(Nc1cc(Oc2ccc(NC(=O)C3(C(=O)Nc4ccc(F)cc4)CC3)c(F)c2F)ccn1)N1CC(O)C1 [Example 106, N-[2,3-Difluoro-4-[(2-{[(3-hydroxyazetidin-1-yl)carbonyl]amino}pyridin-4-yl)oxy]phenyl}-N′-(4-fluorophenyl)cyclopropane-1,1-dicarboxamide]"
21,0.061 µM,"CN(C)CC1CN(C(=O)Nc2cc(Oc3ccc(NC(=O)C4(C(=O)Nc5ccc(F)cc5)CC4)c(F)c3F)ccn2)C1 [Example 107, N-[4-({2-[({3-[(Dimethylamino)methyl]azetidine-1-yl}carbonyl)amino]pyridin-4-yl}oxy)-2,3-difluorophenyl]-N′-(4-fluorophenyl)cyclopropane-1,1-dicarboxamide]"

# From US7855290B2, “Pyridine derivatives and pyrimidine derivatives (3)” (Eisai R&D Management Co., Ltd., priority 2005, dated 2010)
